Tests used:
[1] = target: T1, alpha 1A adrenergic receptor (Homo sapiens, UniProt P35348); assay: Receptor affinity, Alpha 1A (epinephrine as agonist); type: binding; conditions: read-out: pKi values (converted)
T1 sequence (P35348 1-466): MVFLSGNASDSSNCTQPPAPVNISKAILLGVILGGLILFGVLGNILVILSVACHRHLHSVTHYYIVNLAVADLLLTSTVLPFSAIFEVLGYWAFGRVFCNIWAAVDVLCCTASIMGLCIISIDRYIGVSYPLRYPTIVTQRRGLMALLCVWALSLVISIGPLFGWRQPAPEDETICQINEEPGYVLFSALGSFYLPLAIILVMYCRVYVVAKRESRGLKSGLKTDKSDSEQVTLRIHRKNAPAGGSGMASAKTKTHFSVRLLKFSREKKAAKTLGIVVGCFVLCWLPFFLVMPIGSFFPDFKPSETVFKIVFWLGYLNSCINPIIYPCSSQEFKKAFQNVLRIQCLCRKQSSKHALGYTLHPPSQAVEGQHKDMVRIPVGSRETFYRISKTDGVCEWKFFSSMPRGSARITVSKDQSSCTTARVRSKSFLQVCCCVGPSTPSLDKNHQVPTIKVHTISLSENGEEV
Experimental: (§1) Summary of pKi values of Pimethixene for the respective receptor subtypes. pKi values were calculated using the equation of Cheng and Prusoff {pKi = -log (IC50/[1+ used concentration of Agonist/EC50])}.EC80 values were calculated from corresponding dose-response experiment using 5-HT, histamine, epinephrine (alpha 1A adrenergic receptor), dopamine (D2 dopaminergic receptor), and acetylcholine (M1 muscarinic receptor) as agonists.

human H1 receptor = target: T2, human H1 receptor (Homo sapiens, UniProt P35367); assay: Cloned human H1 receptor binding assay, [3H]-mepyramine
T2 construct: expressed in transfected cells
T2 sequence (P35367 whole entry): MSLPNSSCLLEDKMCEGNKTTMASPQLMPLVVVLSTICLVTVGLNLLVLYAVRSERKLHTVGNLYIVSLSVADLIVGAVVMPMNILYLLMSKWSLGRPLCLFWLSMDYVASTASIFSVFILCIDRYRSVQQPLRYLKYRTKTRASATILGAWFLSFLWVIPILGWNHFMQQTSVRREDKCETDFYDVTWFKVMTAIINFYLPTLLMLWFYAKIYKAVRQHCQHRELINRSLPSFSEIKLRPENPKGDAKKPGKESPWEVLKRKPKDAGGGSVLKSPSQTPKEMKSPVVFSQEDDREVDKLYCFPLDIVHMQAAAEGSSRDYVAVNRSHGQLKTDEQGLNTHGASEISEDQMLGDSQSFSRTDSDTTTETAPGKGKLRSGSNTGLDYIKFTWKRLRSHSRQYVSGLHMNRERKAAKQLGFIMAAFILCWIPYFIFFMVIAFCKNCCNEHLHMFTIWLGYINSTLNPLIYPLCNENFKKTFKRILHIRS
Experimental: (§2) CHO cells were stably transfected with an expression plasmid pCineohH1, pCineohH2, pCineohH3 and pCineohH4 encoding the human Histamine H1, H2, H3 or H4 receptor, respectively. Recombinant cell lines were harvested after confluent growth, homogenized in ice-cold 50 mM Na2/potassium phosphate buffer (pH 7.4) and used for radioligand binding studies. Cell homogenates (40 - 50 µg of protein) were incubated for 30 min at 25°C in 50 mM Na2/potassium phosphate buffer (pH 7.4) in 400 µl with the various concentrations of either [^3H]-mepyramine, [^3H]-thiotidine, [^3H]-R-α-Methylhistamine, and [^3H]-pyramilamine for cells expressing recombinant human H1, H2, H3 and H4 receptors, respectively. The nonspecific binding was defined in the presence of 1 µM mianserin. In displacement studies, cell homogenated were incubated either with 1 nM [^3H]-mepyramine, 15 nM [^3H]-thiotidine, 0.5 nM [^3H]-R-α-Methylhistamine, or 15 nM [^3H]-pyramilamine and increasing concentrations of competing ligands. The incubations were stopped by rapid dilution with 3 ml of ice-cold 50 mM Na2/potassium phosphate buffer (pH 7.4). The bound radioactivity was seperated by filatration through Whatman GF/C filters that had been treated with 0.3 % polyethyleneimine. Filters were washed twice in 3 ml of buffer and radioactivity retained on the filters was measured by liquid scinitllation counting. […]

[2] = tested on: plasma protein extravasation; assay: mCPP model in guinea pigs: plasma protein extravasation in the dura mater (EvansBlue); type: in vivo; conditions: for plasma protein extravasation as EvansBlue extinction at 600nm: 2 minutes before 1µg/kg mCPP, guinea pigs
Experimental: Functional test of Pimethixene in the mCPP model in guinea pigs.
In accordance to the protocol published by Markowitz et. al; (1987) and Olesen et. al; (2000), guinea pigs were used to determine the amount of plasma protein released at the blood vessels within the Dura mater after mCPP application. […] 2 minutes later 1µg/kg body weight mCPP were injected and followed by the i.v. application of EvansBlue as marker for the protein plasma extravasation. 15 minutes later animals were transcranial perfused and decapitated. A,defined area of the dura mater was isolated and transferred into an eppendorf tube containing 200µl formamid. Because EvansBlue binds to plasma protein, the amount of bound marker dye is a measure of extravasation of plasma protein. Formamid dissolves EvansBlue from the protein which can be colorimetric detected and quantified at 600 nm. Table 2: Determination of plasma protein extravasation as EvansBlue extinction at 600nm.

5-HT2C receptor = target: T3, 5-HT2C receptor (Homo sapiens, UniProt P28335); assay: 5-HT2C receptor binding method, [3H]mesulergine; conditions: read-out: pKi values (converted)
T3 construct: expressed in transfected cells; host or cells: Cos-7
T3 sequence (P28335 33-458): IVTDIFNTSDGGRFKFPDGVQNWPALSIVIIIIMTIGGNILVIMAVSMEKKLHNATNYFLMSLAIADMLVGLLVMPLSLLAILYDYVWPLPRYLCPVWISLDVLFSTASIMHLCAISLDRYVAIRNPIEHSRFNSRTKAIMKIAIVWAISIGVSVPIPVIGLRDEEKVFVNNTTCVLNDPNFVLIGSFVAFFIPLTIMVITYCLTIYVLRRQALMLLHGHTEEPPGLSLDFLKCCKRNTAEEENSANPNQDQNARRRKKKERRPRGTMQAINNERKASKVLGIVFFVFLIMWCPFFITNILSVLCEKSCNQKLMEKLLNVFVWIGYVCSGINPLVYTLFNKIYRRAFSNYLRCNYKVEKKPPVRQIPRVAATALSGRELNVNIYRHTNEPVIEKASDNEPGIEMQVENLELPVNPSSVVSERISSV
Experimental: 5-HT2C receptors were labelled in Cos-7 cells expressing the human 5-HT2C receptor and in NIH-3T3 expressing the rat 5-HT2C receptor.
Assays were conducted as described for the 5-HT2A receptor except that the radioligand was [^3H]mesulergine. […] .

human 5-HT2B receptor = human 5-HT2B receptor (Homo sapiens, UniProt P41595); assay: Cloned human 5-HT2B receptor binding assay, [3H]-5HT
Chain of human 5-HT2B receptor (P41595 whole entry): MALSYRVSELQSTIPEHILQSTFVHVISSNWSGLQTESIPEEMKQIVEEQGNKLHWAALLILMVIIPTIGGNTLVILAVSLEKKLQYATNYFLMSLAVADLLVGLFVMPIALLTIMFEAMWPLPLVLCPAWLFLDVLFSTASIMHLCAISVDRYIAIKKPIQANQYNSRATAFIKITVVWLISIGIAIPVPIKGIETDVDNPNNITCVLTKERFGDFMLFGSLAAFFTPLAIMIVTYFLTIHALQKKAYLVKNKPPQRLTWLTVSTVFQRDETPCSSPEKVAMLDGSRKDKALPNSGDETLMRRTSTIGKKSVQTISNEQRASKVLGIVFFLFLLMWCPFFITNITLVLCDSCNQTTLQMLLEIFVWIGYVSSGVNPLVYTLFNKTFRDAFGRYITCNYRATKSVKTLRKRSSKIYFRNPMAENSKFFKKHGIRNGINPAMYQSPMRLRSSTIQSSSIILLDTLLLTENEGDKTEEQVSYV

D2 dopaminergic receptor = D2 dopaminergic receptor (Homo sapiens, UniProt P14416); assay: Receptor affinity, D2 (dopamine as agonist); type: binding; conditions: read-out: pKi values (converted)
Chain of D2 dopaminergic receptor (P14416 whole entry): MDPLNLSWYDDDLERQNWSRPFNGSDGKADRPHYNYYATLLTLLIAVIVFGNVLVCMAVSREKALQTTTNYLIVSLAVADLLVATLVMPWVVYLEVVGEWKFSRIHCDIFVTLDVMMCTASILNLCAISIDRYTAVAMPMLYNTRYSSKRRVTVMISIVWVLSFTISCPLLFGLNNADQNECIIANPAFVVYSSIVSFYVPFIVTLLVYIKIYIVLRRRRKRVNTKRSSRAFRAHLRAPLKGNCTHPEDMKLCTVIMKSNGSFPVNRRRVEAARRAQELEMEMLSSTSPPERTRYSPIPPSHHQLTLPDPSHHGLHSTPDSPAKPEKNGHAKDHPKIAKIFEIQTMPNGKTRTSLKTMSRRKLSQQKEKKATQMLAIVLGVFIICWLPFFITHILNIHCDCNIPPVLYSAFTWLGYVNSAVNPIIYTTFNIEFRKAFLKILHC
Experimental: as §1

5-HT2A receptor = target: T4, 5-HT2A receptor (Homo sapiens, UniProt P28223); assay: 5-HT2A receptor binding method, [3H]ketanserin; conditions: read-out: pKi values (converted)
T4 construct: expressed in transfected cells; host or cells: HEK293
T4 sequence (P28223 whole entry): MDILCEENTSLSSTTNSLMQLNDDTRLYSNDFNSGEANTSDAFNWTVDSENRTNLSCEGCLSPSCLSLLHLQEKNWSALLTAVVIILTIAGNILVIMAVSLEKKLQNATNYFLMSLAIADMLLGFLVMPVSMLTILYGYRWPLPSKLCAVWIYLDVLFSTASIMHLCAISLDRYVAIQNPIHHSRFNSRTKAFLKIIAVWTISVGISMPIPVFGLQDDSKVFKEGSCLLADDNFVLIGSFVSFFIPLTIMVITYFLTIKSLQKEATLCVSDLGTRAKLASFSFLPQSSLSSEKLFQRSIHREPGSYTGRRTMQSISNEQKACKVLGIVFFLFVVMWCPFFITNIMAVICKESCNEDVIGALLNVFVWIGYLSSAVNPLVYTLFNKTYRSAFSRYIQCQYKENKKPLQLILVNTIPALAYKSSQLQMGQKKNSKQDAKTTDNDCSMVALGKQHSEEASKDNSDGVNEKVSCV

[3] = target: T5, human Histamine H3 receptor (Homo sapiens, UniProt Q9Y5N1); assay: Cloned human H3 receptor binding assay, [3H]-R-α-Methylhistamine
T5 construct: expressed in transfected cells
T5 sequence (Q9Y5N1 whole entry): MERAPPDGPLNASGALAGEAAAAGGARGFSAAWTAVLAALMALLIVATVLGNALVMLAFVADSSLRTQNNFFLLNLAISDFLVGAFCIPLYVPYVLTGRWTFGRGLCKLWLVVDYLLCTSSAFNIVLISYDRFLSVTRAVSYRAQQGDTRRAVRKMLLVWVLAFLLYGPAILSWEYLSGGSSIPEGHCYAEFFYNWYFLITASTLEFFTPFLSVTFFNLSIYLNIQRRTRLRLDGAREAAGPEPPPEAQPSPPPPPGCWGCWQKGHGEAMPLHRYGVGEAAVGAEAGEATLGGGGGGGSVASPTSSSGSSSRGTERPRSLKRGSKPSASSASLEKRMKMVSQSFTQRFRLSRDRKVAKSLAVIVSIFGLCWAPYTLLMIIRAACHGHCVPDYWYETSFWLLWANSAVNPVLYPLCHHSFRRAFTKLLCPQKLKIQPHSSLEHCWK
Experimental: as §2

[4] = target: T6, human Histamine H2 receptor (Homo sapiens, UniProt P25021); assay: Cloned human H2 receptor binding assay, [3H]-thiotidine
T6 construct: expressed in transfected cells
T6 sequence (P25021 whole entry): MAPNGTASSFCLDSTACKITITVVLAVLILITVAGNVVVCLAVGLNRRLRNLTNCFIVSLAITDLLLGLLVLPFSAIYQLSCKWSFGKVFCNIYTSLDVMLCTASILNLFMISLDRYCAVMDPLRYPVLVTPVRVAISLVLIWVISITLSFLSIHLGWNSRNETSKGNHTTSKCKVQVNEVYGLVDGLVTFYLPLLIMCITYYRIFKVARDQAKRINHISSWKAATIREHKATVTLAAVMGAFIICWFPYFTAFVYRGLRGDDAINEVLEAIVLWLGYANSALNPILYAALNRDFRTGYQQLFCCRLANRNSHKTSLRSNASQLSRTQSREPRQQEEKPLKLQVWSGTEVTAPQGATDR
Experimental: as §2

M1 muscarinic receptor = target: T7, M1 muscarinic receptor (Homo sapiens, UniProt P11229); assay: Receptor affinity, M1 (acetylcholine as agonist); type: binding; conditions: read-out: pKi values (converted)
T7 sequence (P11229 1-460): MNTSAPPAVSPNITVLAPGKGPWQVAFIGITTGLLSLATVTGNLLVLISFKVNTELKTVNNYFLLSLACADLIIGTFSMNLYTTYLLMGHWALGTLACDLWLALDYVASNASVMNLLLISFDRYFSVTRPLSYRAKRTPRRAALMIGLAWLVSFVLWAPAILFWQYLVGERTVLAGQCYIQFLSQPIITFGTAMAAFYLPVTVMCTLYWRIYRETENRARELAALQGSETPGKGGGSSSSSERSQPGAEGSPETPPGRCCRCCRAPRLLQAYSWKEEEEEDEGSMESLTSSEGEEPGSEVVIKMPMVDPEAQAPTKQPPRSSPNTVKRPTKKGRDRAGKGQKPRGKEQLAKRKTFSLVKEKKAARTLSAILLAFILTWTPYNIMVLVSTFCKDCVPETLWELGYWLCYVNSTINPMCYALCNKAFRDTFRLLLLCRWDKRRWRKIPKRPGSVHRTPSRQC
Experimental: as §1

[5] = target: T8, human Histamine H4 receptor (Homo sapiens, UniProt Q9H3N8); assay: Cloned human H4 receptor binding assay, [3H]-pyramilamine
T8 construct: expressed in transfected cells
T8 sequence (Q9H3N8 whole entry): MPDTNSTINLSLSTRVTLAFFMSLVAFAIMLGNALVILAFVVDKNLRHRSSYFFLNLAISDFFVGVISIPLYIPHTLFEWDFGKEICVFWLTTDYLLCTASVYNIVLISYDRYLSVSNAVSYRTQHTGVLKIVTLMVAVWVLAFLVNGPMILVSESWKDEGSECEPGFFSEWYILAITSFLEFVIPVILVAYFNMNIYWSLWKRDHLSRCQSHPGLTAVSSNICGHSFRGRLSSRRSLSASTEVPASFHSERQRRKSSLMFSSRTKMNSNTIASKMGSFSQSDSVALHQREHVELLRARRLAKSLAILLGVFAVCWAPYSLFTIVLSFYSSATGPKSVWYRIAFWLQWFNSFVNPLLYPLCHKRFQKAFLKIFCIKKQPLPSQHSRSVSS
Experimental: as §2

## CN1CCC(=C2c3ccccc3Sc3ccccc32)CC1 [Pimethixene, 9-(N-methyl-piperidyliden-4)-thioxanthene]
[1]
  Ki: 25.1 nM
Human H1 receptor; H1, read-out: pKi values (converted)
  Ki: 0.00794 nM
Human H1 receptor; human H1 receptor, result in words
  affinity: high affinity
[2]; 0,01 µg/kg i.v.
  plasma protein extravasation as EvansBlue extinction at 600nm: 0,157 ± 0,040
[2]; 0,1 µg/kg i.v.
  plasma protein extravasation as EvansBlue extinction at 600nm: 0,126 ± 0,028
[2]; 0,001 µg/kg i.v.
  plasma protein extravasation as EvansBlue extinction at 600nm: 0,269 ± 0,022
5-HT2C receptor
  Ki: 2.51 nM
Human 5-HT2B receptor
  Ki: 0.0251 nM
Human 5-HT2B receptor; selectivity, result in words
  affinity for the 5-HT2B receptor versus 5HT2C receptor: selective affinity
D2 dopaminergic receptor
  Ki: 6.31 nM
5-HT2A receptor
  Ki: 0.0631 nM
[3]; H3
  pKi values: low activity
[3]; human H3 receptor, result in words
  affinity: no affinity
[4]; H2
  pKi values: low activity
[4]; human H2 receptor, result in words
  affinity: no affinity
M1 muscarinic receptor
  Ki: 2.51 nM
[5]; H4
  pKi values: low activity
[5]; human H4 receptor, result in words
  affinity: no affinity

## CC[C@@H](CO)NC(=O)[C@@H]1C=C2c3cccc4c3c(cn4C)C[C@H]2N(C)C1 [Methysergide]
[2]; 0,1 µg/kg i.v.
  plasma protein extravasation as EvansBlue extinction at 600nm: 0,265 ± 0,034
[2]; 1 µg/kg i.v.
  plasma protein extravasation as EvansBlue extinction at 600nm: 0,250 ± 0,027
[2]; 10 µg/kg i.v.
  plasma protein extravasation as EvansBlue extinction at 600nm: 0,228 ± 0,064
[2]; 100 µg/kg i.v.
  plasma protein extravasation as EvansBlue extinction at 600nm: 0,189 ± 0,026

## CN1CCC(=C2c3ccccc3CCc3sccc32)CC1 [Pizotifen]
[2]; 1 µg/kg i.v.
  plasma protein extravasation as EvansBlue extinction at 600nm: 0,404 ± 0,025
[2]; 10 µg/kg i.v.
  plasma protein extravasation as EvansBlue extinction at 600nm: 0,144 ± 0,035
[2]; 100 µg/kg i.v.
  plasma protein extravasation as EvansBlue extinction at 600nm: 0,230 ± 0,018
Human 5-HT2B receptor
  Ki: 2.88 nM

## Clc1cccc(N2CCNCC2)c1 [mCPP, m-chlorophenylpiperazine]
[2]; positive control: mCPP agonist alone, 1µg/kg, negative control 0,130 ± 0,024
  extinction: 0,300 ± 0,038

Source: EP1655027A1, “9-(N-methyl-piperidyliden-4)-thioxanthene for treatment of pulmonary hypertension and migraine” (Biofrontera Pharmaceuticals GmbH, priority 2004, dated 2006)
